Measurements: PMC8190895 (RSC Chemical Biology, 2021)
Like-named read-outs stand apart in the source and are kept apart here. Each block holds one compound with its values, some of them ahead of it.

Tests used:
Assay in all cases: ITC
Format in all cases: binding
[1] = target: T1, Gal-8FL (full-length human galectin-8) (Homo sapiens, UniProt O00214); conditions: PBS (50 mM sodium phosphate, 150 mM NaCl) pH 7.4, 1 mM TCEP, 298 K
T1 sequence (O00214 1-317): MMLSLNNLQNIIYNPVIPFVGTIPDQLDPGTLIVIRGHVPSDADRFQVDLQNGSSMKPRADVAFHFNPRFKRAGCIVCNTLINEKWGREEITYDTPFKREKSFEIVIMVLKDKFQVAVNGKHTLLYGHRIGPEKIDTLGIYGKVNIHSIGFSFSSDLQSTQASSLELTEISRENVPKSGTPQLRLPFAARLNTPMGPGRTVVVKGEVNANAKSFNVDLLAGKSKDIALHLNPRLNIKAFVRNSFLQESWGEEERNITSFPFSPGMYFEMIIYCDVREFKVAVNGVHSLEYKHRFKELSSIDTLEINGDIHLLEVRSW

[2] = target: T2, Gal-8C (C-terminal CRD of human galectin-8) (Homo sapiens, UniProt O00214); conditions: PBS (50 mM sodium phosphate, 150 mM NaCl) pH 7.4, 1 mM TCEP, 298 K
T2 sequence (O00214 184-317): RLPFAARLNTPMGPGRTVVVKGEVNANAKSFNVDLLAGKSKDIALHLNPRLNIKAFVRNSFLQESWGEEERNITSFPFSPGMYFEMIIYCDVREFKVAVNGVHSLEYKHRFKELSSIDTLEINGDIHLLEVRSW

[3] = target: T3, Gal-8N (N-terminal CRD of human galectin-8) (Homo sapiens, UniProt O00214); conditions: read-out: Neu5Acα2-3Galb1-3GalNAc (3); PBS (50 mM sodium phosphate, 150 mM NaCl) pH 7.4, 1 mM TCEP, 298 K
T3 sequence (O00214 1-155): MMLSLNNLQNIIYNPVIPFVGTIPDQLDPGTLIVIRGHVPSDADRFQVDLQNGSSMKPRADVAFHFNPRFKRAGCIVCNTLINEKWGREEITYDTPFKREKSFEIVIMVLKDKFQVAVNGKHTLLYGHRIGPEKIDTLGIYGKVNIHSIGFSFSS

- Kd ([1]; read-out: A type II (6), site: C-terminal CRD, not pre-loaded): 12 ± 1 µM
- Kd ([2]; read-out: A type II (6)): 13.45 ± 0.05 µM
Structure (SMILES): CC(=O)N[C@H]1[C@@H](O[C@H]2[C@@H](O)[C@@H](CO)O[C@@H](O[C@H]3[C@H](O)[C@@H](NC(C)=O)C(O)O[C@@H]3CO)[C@@H]2O[C@@H]2O[C@@H](C)[C@@H](O)[C@@H](O)[C@@H]2O)O[C@H](CO)[C@H](O)[C@@H]1O (stereo partly drawn) [compound 6, A type II]

- Kd ([1]; read-out: B type II (5), site: C-terminal CRD): 36.7 ± 0.6 µM
- Kd ([2]; read-out: B type II (5)): 18.4 ± 0.1 µM
Structure (SMILES): CC(=O)N[C@H]1C(O)O[C@H](CO)[C@@H](O[C@@H]2O[C@H](CO)[C@H](O)[C@H](O[C@H]3O[C@H](CO)[C@H](O)[C@H](O)[C@H]3O)[C@H]2O[C@@H]2O[C@@H](C)[C@@H](O)[C@@H](O)[C@@H]2O)[C@@H]1O (stereo partly drawn) [compound 5, B type II]

- Kd [3]: 2.2 ± 0.1 µM
- Kd ([1]; read-out: Neu5Acα2-3Galb1-3GalNAc (3), site: N-terminal CRD, not pre-loaded): 4.3 ± 0.4 µM
Structure (SMILES): CC(=O)N[C@H]1[C@H]([C@H](O)[C@H](O)CO)O[C@@](O[C@H]2[C@@H](O)[C@@H](CO)O[C@@H](O[C@H]3[C@@H](O)[C@@H](CO)OC(O)[C@@H]3NC(C)=O)[C@@H]2O)(C(=O)O)C[C@@H]1O (stereo partly drawn) [compound 3, 3-sialyl-Galβ1–3GalNAc]
